From article PMC7031696 (Cell chemical biology, 2019)
Read-outs that look alike come from different tables or passages of the source.

Legend:
[1] = test system: asynchronous 3D7-A10 parasite cultures; test: Standard 72-h exposure asexual blood stage susceptibility assay (IC50^72h); assay type: cell-based, Plasmodium falciparum; details: Plasmodium falciparum, 3D7, 72 h, read-out: Overall (72hr assay) Mean IC50 (IC50^72h)
[2] = test system: 3D7-MR4 trophozoite parasite-infected RBCs; test: Metabolomic profiling (hydrophilic metabolite changes, UHPLC-MS); assay type: cell-based, Plasmodium falciparum
[3] = test system: Plasmodium falciparum 3D7-A10 parasites; test: Stage specificity assay (8-h exposure of synchronized stages, IC50^8h); assay type: cell-based; details: for IC50: Plasmodium falciparum

For `FC(F)(F)c1cccc(Nc2nc3ccccc3nc2Nc2cccc(C(F)(F)F)c2)c1` [MMV665794], the IC50 [1] was 91.3 nM, the “Log2(fold changes) 3-phosphoglycerate” value ([2]; metabolite 3-phosphoglycerate, log2 fold change) was 0.1475 and the “Log2(fold changes) 4-Pyridoxic acid” value ([2]; metabolite 4-Pyridoxic acid, log2 fold change) was 0.1397. The “Log2(fold changes) 4-aminobutyrate” value ([2]; metabolite 4-aminobutyrate, log2 fold change) was -0.1443, the “Log2(fold changes) 4-phosphopantetheine” value ([2]; metabolite 4-phosphopantetheine, log2 fold change) was 0.0000 and the “Log2(fold changes) 4-phosphopantothenate” value ([2]; metabolite 4-phosphopantothenate, log2 fold change) was 0.0000. For the same compound, the “Log2(fold changes) 5-aminopentanoic acid” value ([2]; metabolite 5-aminopentanoic acid, log2 fold change) was 0.0000, the “Log2(fold changes) 5-methyl-THF” value ([2]; metabolite 5-methyl-THF, log2 fold change) was 0.0000 and the “Log2(fold changes) 5-phosphoribosyl-1-pyrophosphate” value ([2]; metabolite 5-phosphoribosyl-1-pyrophosphate, log2 fold change) was 0.0000. For the same compound, the “Log2(fold changes) 6-phospho-D-gluconate” value ([2]; metabolite 6-phospho-D-gluconate, log2 fold change) was 0.0648, the “Log2(fold change) HVDD” value ([2]; metabolite HVDD) was 0.0000 and the “Log2(fold change) Hydroxyisocaproic acid” value ([2]; metabolite Hydroxyisocaproic acid) was 0.0000. For the same compound, the “Log2(fold change) IDP” value ([2]; metabolite IDP) was 0.0000, the “Log2(fold change) IMP” value ([2]; metabolite IMP) was -0.1724 and the “Log2(fold change) Inositol” value ([2]; metabolite Inositol) was 0.4519. The “Log2(fold change) Isopentyl-PP” value ([2]; metabolite Isopentyl-PP) was 0.0000, the “Log2(fold change) L-arginino-succinate” value ([2]; metabolite L-arginino-succinate) was 0.0000 and the “Log2(fold change) LD” value ([2]; metabolite LD) was 0.2876. The “Log2(fold change) Myristoyl/tetradecanoyl-CoA” value ([2]; metabolite Myristoyl/tetradecanoyl-CoA) was 0.0000, the “Log2(fold change) N-Acetyl-L-alanine” value ([2]; metabolite N-Acetyl-L-alanine) was -0.5892 and the “Log2(fold change) N-acetyl-L-ornithine” value ([2]; metabolite N-acetyl-L-ornithine) was -0.6613. The “Log2(fold change) N-acetyl-glucosamine-1/6-phosphate” value ([2]; metabolite N-acetyl-glucosamine-1/6-phosphate) was 0.0457, the “Log2(fold change) N-acetyl-glutamate” value ([2]; metabolite N-acetyl-glutamate) was 0.0432 and the “Log2(fold change) N-acetyl-glutamine” value ([2]; metabolite N-acetyl-glutamine) was -0.6444. The “Log2(fold change) N-carbamoyl-L-aspartate” value ([2]; metabolite N-carbamoyl-L-aspartate) was 0.7842, the “Log2(fold change) NAD+” value ([2]; metabolite NAD+) was -0.0023 and the “Log2(fold change) NADH” value ([2]; metabolite NADH) was 0.0000. The “Log2(fold change) NADP+” value ([2]; metabolite NADP+) was 0.2420, the “Log2(fold change) NADPH” value ([2]; metabolite NADPH) was 0.2872 and the “Log2(fold change) O-acetyl-L-serine” value ([2]; metabolite O-acetyl-L-serine) was 0.0000. For the same compound, the “Log2(fold change) Octoluse 8/1P” value ([2]; metabolite Octoluse 8/1P) was -0.0525, the “Log2(fold change) Octoluse Bisphosphate” value ([2]; metabolite Octoluse Bisphosphate) was -0.0227 and the “Log2(fold change) PD” value ([2]; metabolite PD) was -1.6060. The “Log2(fold change) PE” value ([2]; metabolite PE) was -1.2530, the “Log2(fold change) PEE” value ([2]; metabolite PEE) was -0.7348 and the “Log2(fold change) PEEK” value ([2]; metabolite PEEK) was -2.1636. For the same compound, the “Log2(fold change) PVNF” value ([2]; metabolite PVNF) was -0.9738, the “Log2(fold change) Pyroglutamic acid” value ([2]; metabolite Pyroglutamic acid) was -0.1549 and the “Log2(fold change) Pyrophosphate” value ([2]; metabolite Pyrophosphate) was 0.0000. The “Log2(fold change) Ribose-5-phosphate” value ([2]; metabolite Ribose-5-phosphate) was 0.0000, the “Log2(fold change) S-adenosyl-L-homocysteine” value ([2]; metabolite S-adenosyl-L-homocysteine) was -0.1116 and the “Log2(fold change) S-adenosyl-L-methioninamine” value ([2]; metabolite S-adenosyl-L-methioninamine) was 0.0000. The “Log2(fold change) S-adenosyl-L-methionine” value ([2]; metabolite S-adenosyl-L-methionine) was 0.0000, the “Log2(fold change) S-methyl-5'-thioadenosine” value ([2]; metabolite S-methyl-5'-thioadenosine) was -0.0770 and the “Log2(fold change) SD” value ([2]; metabolite SD) was -0.6103. The “Log2(fold change) SDL” value ([2]; metabolite SDL) was 0.0000, the “Log2(fold change) SID” value ([2]; metabolite SID) was 0.0000 and the “Log2(fold change) Sedoheptulose bisphosphate” value ([2]; metabolite Sedoheptulose bisphosphate) was 0.0000. For the same compound, the “Log2(fold change) Thiamine pyrophosphate” value ([2]; metabolite Thiamine pyrophosphate) was 0.0000, the “Log2(fold changes) UDP-D-glucose” value ([2]; metabolite UDP-D-glucose, log2 fold change) was 0.0057 and the “Log2(fold changes) UDP-D-glucuronate” value ([2]; metabolite UDP-D-glucuronate, log2 fold change) was 0.0333. The “Log2(fold changes) UDP-N-acetyl-glucosamine” value ([2]; metabolite UDP-N-acetyl-glucosamine, log2 fold change) was -0.0841, the “Log2(fold changes) UDP” value ([2]; metabolite UDP, log2 fold change) was -0.2966 and the “Log2(fold changes) UMP” value ([2]; metabolite UMP, log2 fold change) was -0.1315. For the same compound, the “Log2(fold changes) UTP” value ([2]; metabolite UTP, log2 fold change) was -0.1979, the “Log2(fold change) hydroxyphenylpyruvate” value ([2]; metabolite hydroxyphenylpyruvate) was 0.0000 and the “Log2(fold change) hydroxyproline/Aminolevulinate” value ([2]; metabolite hydroxyproline/Aminolevulinate) was 0.0000. The “Log2(fold change) hypoxanthine” value ([2]; metabolite hypoxanthine) was 0.0564, the “Log2(fold change) indole” value ([2]; metabolite indole) was 0.0000 and the “Log2(fold change) inosine” value ([2]; metabolite inosine) was -0.1857. The “Log2(fold change) isoleucine” value ([2]; metabolite isoleucine) was 0.0000, the “Log2(fold change) lactate” value ([2]; metabolite lactate) was -0.1258 and the “Log2(fold change) leucine” value ([2]; metabolite leucine) was 0.0000. The “Log2(fold change) lysine” value ([2]; metabolite lysine) was -1.0057, the “Log2(fold change) malate” value ([2]; metabolite malate) was -0.5114 and the “Log2(fold change) maleic acid” value ([2]; metabolite maleic acid) was 0.0000. For the same compound, the “Log2(fold change) methionine” value ([2]; metabolite methionine) was 0.1032, the “Log2(fold change) myo-inositol” value ([2]; metabolite myo-inositol) was -0.1088 and the “Log2(fold change) nicotinamide mononucleotide” value ([2]; metabolite nicotinamide mononucleotide) was 0.0000. The “Log2(fold change) nicotinate” value ([2]; metabolite nicotinate) was -0.0014, the “Log2(fold change) ornithine” value ([2]; metabolite ornithine) was -0.5221 and the “Log2(fold change) orotate” value ([2]; metabolite orotate) was -0.1200. For the same compound, the “Log2(fold change) orotidine-5'-phosphate” value ([2]; metabolite orotidine-5'-phosphate) was -0.1502, the “Log2(fold change) oxaloacetate” value ([2]; metabolite oxaloacetate) was 0.0000 and the “Log2(fold change) p-aminobenzoate” value ([2]; metabolite p-aminobenzoate) was 0.0000. For the same compound, the “Log2(fold change) p-hydroxybenzoate” value ([2]; metabolite p-hydroxybenzoate) was 0.0000, the “Log2(fold change) pantothenate” value ([2]; metabolite pantothenate) was -0.3232 and the “Log2(fold change) phenylalanine” value ([2]; metabolite phenylalanine) was -0.3048. For the same compound, the “Log2(fold change) phenylpyruvate” value ([2]; metabolite phenylpyruvate) was 0.0000, the “Log2(fold change) phosphoenolpyruvate” value ([2]; metabolite phosphoenolpyruvate) was 0.2889 and the “Log2(fold change) prephenate” value ([2]; metabolite prephenate) was 0.0000. The “Log2(fold change) proline” value ([2]; metabolite proline) was -0.1760, the “Log2(fold change) pyridoxine” value ([2]; metabolite pyridoxine) was -0.0343 and the “Log2(fold change) pyruvate” value ([2]; metabolite pyruvate) was -0.4249. For the same compound, the “Log2(fold change) riboflavin” value ([2]; metabolite riboflavin) was 0.0000, the “Log2(fold change) ribose” value ([2]; metabolite ribose) was 0.0000 and the “Log2(fold change) ribose-phosphate” value ([2]; metabolite ribose-phosphate) was -0.1845. The “Log2(fold change) ribulose-5-phosphate” value ([2]; metabolite ribulose-5-phosphate) was 0.0000, the “Log2(fold change) serine” value ([2]; metabolite serine) was -0.0943 and the “Log2(fold change) sn-glycerol-3-phosphate” value ([2]; metabolite sn-glycerol-3-phosphate) was 0.1547. The “Log2(fold change) succinate/Methylmalonic acid” value ([2]; metabolite succinate/Methylmalonic acid) was 0.2773, the “Log2(fold change) succinyl-CoA/methylmalonyl-CoA” value ([2]; metabolite succinyl-CoA/methylmalonyl-CoA) was 0.0000 and the “Log2(fold change) taurine” value ([2]; metabolite taurine) was 0.4682. For the same compound, the “Log2(fold change) thiamine” value ([2]; metabolite thiamine) was -0.4163, the “Log2(fold change) threonine/homoserine” value ([2]; metabolite threonine/homoserine) was -0.3057 and the “Log2(fold change) thymidine” value ([2]; metabolite thymidine) was 0.0000. For the same compound, the “Log2(fold changes) thymine” value ([2]; metabolite thymine, log2 fold change) was 0.0000, the “Log2(fold changes) trehalose-6-Phosphate” value ([2]; metabolite trehalose-6-Phosphate, log2 fold change) was 0.0000 and the “Log2(fold changes) tryptophan” value ([2]; metabolite tryptophan, log2 fold change) was -0.2265. The “Log2(fold changes) tyrosine” value ([2]; metabolite tyrosine, log2 fold change) was -0.1308, the “Log2(fold changes) uridine” value ([2]; metabolite uridine, log2 fold change) was -0.0071 and the “Ratio lowest IC50 8hr/IC50 72hr” value ([3]; 3D7-A10) was 1.8. It also gave an IC50 ([3]; 3D7, read-out: Early rings Mean IC50 (IC50^8h), 8-h exposure 0–8 hr, 3D7-A10, survival at 60 h) of 369 nM, an IC50 ([3]; 3D7, read-out: Early trophozoites Mean IC50 (IC50^8h), 8-h exposure 16–24 hr, 3D7-A10, survival at 60 h) of 210 nM and an IC50 ([3]; 3D7, read-out: Late rings Mean IC50 (IC50^8h), 8-h exposure 8–16 hr, 3D7-A10, survival at 60 h) of 590 nM. The IC50 ([3]; 3D7, read-out: Late trophozoites Mean IC50 (IC50^8h), 8-h exposure 24–32 hr, 3D7-A10, survival at 60 h) was 165 nM and the IC50 ([3]; 3D7, read-out: Schizonts Mean IC50 (IC50^8h), 8-h exposure 32–40 hr, 3D7-A10, survival at 60 h) was 203 nM.
